Entries after “also recorded” stand apart in the source; their conditions may differ. Read-outs that look alike come from different tables or passages of the source.
Experiments:
[1] = target: T1, P2Y receptor (taenia coli) (Cavia porcellus, UniProt P59902); assay: Relaxation of carbachol-contracted guinea pig taenia coli
T1 construct: Relaxant responses mediated via P2Y receptors were examined in guinea pig taenia coli; from tissue; host or cells: guinea pig taenia coli (carbachol-contracted)
Outline: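 Guinea pig taenia coli precontracted with 50 nM carbachol; relaxation to applied P2Y agonists expressed as percentage relaxation against negative log molar agonist concentration.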

[2] = target: T1, P2Y receptor (taenia coli); conditions: guinea pig taenia coli, cited from earlier work
nucleotidases = conditions: Zimmet et al.; Jacobson et al.; cited from earlier work
[3] = test system: P2Y receptor (aorta endothelium); assay: Relaxation of noradrenalin-contracted rabbit aorta; conditions: rabbit aorta; log molar units
[4] = target: T2, adenylyl cyclase linked P2Y receptor (C6 rat glioma cells) (Rattus norvegicus, UniProt Q9EPX4); assay: Inhibition of adenylyl cyclase in C6 rat glioma cells; format: cell-based; conditions: versus phospholipase C linked turkey erythrocyte receptor
T2 construct: endogenous in cells; host or cells: C6 rat glioma cells
T2 sequence (Q9EPX4 whole entry): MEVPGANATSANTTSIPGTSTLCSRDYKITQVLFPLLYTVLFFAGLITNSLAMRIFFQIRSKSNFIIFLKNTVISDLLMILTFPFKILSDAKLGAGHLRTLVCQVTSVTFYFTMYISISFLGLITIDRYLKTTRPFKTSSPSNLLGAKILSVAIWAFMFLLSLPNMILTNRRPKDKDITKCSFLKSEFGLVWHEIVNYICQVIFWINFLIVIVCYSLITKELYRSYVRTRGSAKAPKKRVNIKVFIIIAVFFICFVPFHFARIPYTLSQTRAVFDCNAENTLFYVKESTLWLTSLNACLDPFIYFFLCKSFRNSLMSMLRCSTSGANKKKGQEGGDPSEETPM
Outline: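 C6 cells labelled 2 h with [3H]adenine, preincubated 10 min at 37 °C in HEPES-buffered Eagle's medium (pH 7.5) with 200 μM IBMX. Stimulated 10 min with 10 μM isoproterenol plus varied nucleotide concentrations. Stopped with ice-cold 5% trichloroacetic acid.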

P2U receptors = conditions: literature; cited from earlier work
P2Y receptors = conditions: literature; cited from earlier work
[5] = target: P2Y receptor (mesenteric artery); assay: Relaxation of rabbit mesenteric artery; conditions: log molar units
Text: Muscular relaxation/contraction: Relaxant responses mediated via P2Y receptors were examined in guinea pig taenia coli, rabbit aorta, and rabbit mesenteric artery, as described by Hoyle et al. (Br. J. Pharmacol., 107, 367-374 (1992a)), Burnstock et al., (Br. J. Pharmacol., 90, 383-391 (1987a)), and Rubino et al., (Eur. J. Pharmacol., 212, 237-240 (1992)).

[6] = target: T3, P2Y receptor (turkey erythrocyte membranes) (Meleagris gallopavo, UniProt P49652); assay: Stimulation of phospholipase C (inositol phosphate formation) in turkey erythrocyte membranes; format: biochemical; conditions: turkey erythrocyte membranes
T3 construct: from tissue; host or cells: washed turkey erythrocytes, ghosts prepared by hypotonic lysis
T3 sequence (P49652 whole entry): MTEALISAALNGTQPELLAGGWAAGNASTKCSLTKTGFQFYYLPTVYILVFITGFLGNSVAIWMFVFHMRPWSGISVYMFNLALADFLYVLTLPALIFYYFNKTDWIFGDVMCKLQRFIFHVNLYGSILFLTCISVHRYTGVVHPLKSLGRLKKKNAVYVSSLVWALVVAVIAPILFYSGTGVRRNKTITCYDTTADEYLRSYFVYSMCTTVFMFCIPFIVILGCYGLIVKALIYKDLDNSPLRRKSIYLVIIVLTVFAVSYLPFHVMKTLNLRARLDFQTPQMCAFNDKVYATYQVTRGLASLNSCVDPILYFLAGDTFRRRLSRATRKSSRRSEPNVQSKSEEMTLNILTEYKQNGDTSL
Outline: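 Erythrocytes were labelled 18-24 h at 37 °C with [3H]myoinositol, and ghosts were made by hypotonic lysis. Ghosts (≈175 μg protein) were incubated 5 min at 30 °C in Hepes buffer pH 7.0 with 1 μM GTPγS and nucleotide analogs. Total [3H]inositol phosphates were purified by anion exchange; K0.5 averaged from 3-8 dose-response curves.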

[7] = test system: P2X receptor (vas deferens); conditions: Burnstock et al. 1985; cited from earlier work
[8] = target: T4, P2X receptor (vas deferens) (Cavia porcellus, UniProt A0A286XVA9); conditions: guinea pig vas deferens; log molar units; footnote e: literature data; cited from earlier work
T4 sequence (A0A286XVA9 1-399): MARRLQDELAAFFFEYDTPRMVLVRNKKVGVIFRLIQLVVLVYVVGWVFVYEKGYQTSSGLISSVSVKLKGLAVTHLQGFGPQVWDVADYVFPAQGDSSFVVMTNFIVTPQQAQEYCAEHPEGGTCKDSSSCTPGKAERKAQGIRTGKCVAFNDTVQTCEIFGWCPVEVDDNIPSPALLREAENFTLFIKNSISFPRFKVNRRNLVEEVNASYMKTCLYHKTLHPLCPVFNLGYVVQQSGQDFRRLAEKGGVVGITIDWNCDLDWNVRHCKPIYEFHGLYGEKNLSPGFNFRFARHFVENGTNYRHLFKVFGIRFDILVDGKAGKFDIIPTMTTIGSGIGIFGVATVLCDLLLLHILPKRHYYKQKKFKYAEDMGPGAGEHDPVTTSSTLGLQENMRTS

[9] = target: T5, P2X receptor (saphenous artery) (Oryctolagus cuniculus, UniProt G1U3D6); conditions: Burnstock et al., 1987a; cited from earlier work
T5 construct: and rabbit saphenous artery; from tissue; host or cells: rabbit saphenous artery
T5 sequence (G1U3D6 1-399): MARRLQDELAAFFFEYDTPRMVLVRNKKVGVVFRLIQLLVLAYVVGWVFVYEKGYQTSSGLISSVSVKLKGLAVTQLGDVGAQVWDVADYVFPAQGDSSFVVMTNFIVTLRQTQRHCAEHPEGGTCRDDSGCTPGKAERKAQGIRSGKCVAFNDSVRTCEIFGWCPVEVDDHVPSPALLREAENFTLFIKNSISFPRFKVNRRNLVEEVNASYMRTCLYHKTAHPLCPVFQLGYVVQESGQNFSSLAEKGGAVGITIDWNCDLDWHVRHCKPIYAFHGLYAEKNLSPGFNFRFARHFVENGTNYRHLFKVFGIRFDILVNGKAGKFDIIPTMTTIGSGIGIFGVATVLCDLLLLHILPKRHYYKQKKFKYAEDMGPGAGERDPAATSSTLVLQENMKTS

[10] = target: T6, P2X receptor (urinary bladder) (Cavia porcellus, UniProt A0A286XVA9); conditions: cited from earlier work
T6 construct: guinea pig isolated urinary bladder detrussor muscle; from tissue; host or cells: guinea pig isolated urinary bladder detrusor muscle

[11] = target: T4, P2X receptor (vas deferens); assay: Contraction of guinea pig isolated vas deferens
Text: Muscular relaxation/contraction: Relaxant responses mediated via P2Y receptors were examined in guinea pig taenia coli, rabbit aorta, and rabbit mesenteric artery, as described by Hoyle et al. (Br. J. Pharmacol., 107, 367-374 (1992a)), Burnstock et al., (Br. J. Pharmacol., 90, 383-391 (1987a)), and Rubino et al., (Eur. J. Pharmacol., 212, 237-240 (1992)). Contractile responses mediated via P2X receptors were examined in the guinea pig urinary bladder and vas deferens, and rabbit saphenous artery, also using standard methods (see Hoyle et al., supra., 1992; Hoyle et al., Br. J. Pharmacol., 99, 617-621 (1990); and Burnstock et al., Br. J. Pharmacol., 90, 111-120 (1987b)).
In FIG. 14, the x-axis is also marked in units of the negative log of the molar concentration of applied putative P2Y receptor agonists and the y-axis is marked in units of the percentage relaxation of the 1 μM noradrenalin-induced contraction of rabbit aorta endothelium. In FIGS. 15-16, the x-axis is marked in units of the negative log of the molar concentration of applied putative p^2X receptor agonists and the y-axis is marked in units of the percentage contraction relative to a standard dose of KCl (i.e., 60 mM), as assessed in guinea pig isolated urinary bladder detrussor muscle (FIG. 15) and guinea pig isolated vas deferens (FIG. 16).

[12] = target: T5, P2X receptor (saphenous artery); assay: Contraction of rabbit saphenous artery
Outline: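 Contraction of isolated rabbit saphenous artery, standard organ-bath methods; responses at 10 μM expressed as percentage of contraction produced by 1 μM α,MeATP. Highest analogue concentrations tested were 3-30 […].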

[13] = target: T6, P2X receptor (urinary bladder); assay: Contraction of guinea pig isolated urinary bladder detrussor muscle; conditions: guinea pig urinary bladder
[14] = mean ± S.E.M. for at least 2 determinations, read-out: phosphatidyl inositol metabolism (K0.5, nM) erythrocyte

T1 sequence (P59902 whole entry): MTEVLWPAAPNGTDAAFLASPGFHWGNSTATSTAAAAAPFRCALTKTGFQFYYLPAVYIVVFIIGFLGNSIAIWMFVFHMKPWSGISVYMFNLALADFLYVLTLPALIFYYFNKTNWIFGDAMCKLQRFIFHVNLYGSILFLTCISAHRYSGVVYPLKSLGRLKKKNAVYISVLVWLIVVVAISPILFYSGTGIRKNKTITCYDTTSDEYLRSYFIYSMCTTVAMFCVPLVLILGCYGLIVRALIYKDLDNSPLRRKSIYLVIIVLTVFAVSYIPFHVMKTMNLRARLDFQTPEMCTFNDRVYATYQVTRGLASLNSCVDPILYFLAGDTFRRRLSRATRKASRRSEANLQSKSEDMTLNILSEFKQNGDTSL

CSc1nc(N)c2ncn([C@@H]3O[C@H](COP(=O)(O)OP(=O)(O)OP(=O)(O)O)[C@@H](O)[C@H]3O)c2n1 [2-MeS-ATP, 2-methylthio-ATP]
EC50 [1]: 10 nM
pD2, taenia coli, as reported by Hoyle et al. [2]: 8.0±0.15
stability to nucleotidases, in words (nucleotidases): susceptible to ectonucleotidases
relaxation pD2, aorta [3]: 6.8
selectivity for the adenylyl cyclase linked (C6 cell) receptor [4]: 7.3 -fold
potency at P2U receptors, in words (P2U receptors): much less potent than ATP at P2U -receptors
P2Y receptor affinity/potency, in words (P2Y receptors): high affinity for P2Y receptors; also recorded: One of the most potent known P2Y receptor agonists
relaxation pD2, mes. artery [5]: 6.5
EC50 [6, 14]: 8 ± 2 nM
EC50 ([6]; read-out: K0.5): 8 nM

Nc1ncnc2c1ncn2[C@@H]1O[C@H](COP(=O)(O)CP(=O)(O)OP(=O)(O)O)[C@@H](O)[C@H]1O [a,β-Me-ATP, α,β-methylene-ATP]
activity in words, vas deferens [7]: a potent constrictor
contraction pD2, vas [8]: 5.3
activity/potency in words, taenia coli ([1]; guinea pig taenia coli): reduced activity in the taenia coli
relaxation pD2, taenia coli ([2]; log molar units, footnote e: literature data): 5.6
activity in words, saphenous artery [9]: a potent constrictor
activity in words, urinary bladder ([10]; Burnstock et al. 1985): a potent constrictor
contraction pD2, bladder ([10]; guinea pig urinary bladder, log molar units, footnote e: literature data): 5.7
activity/potency in words, vas deferens [11]: markedly enhanced activity
contraction produced by 1 μM, saphenous artery ([12]; rabbit saphenous artery, 1 μM): half maximal effect
activation at 10 µM ([12]; read-out: response at 10 μM relative to the contraction produced by 1 μM α,MeATP, saph. artery): 5.9%
activity/potency in words, bladder [13]: markedly enhanced activity
activity/potency in words, turkey erythrocyte [6]: a very weak, yet full agonist
EC50 [6, 14]: > 100000 nM
